Data published in article PMC3639963, “A New Class of Small Molecule Inhibitor of BMP Signaling” (PLoS ONE, 2013).

Legend:
Assay in all cases: Nanosyn kinase profiling
Format in all cases: biochemical
CDK6/cycD3 = molecular target: T1, CDK6/cycD3 (Homo sapiens, UniProt Q00534); settings: read-out: Percentage inhibition; for inhibition at 0.1 µM: 0.1 µM inhibitor; for inhibition at 1 µM: 1 µM inhibitor
T1 construct: purchased Nanosyn (enzymatic panel); SGC in-house recombinant human kinases (DSF panel); Invitrogen (ALK1-6)
T1 sequence (Q00534 whole entry): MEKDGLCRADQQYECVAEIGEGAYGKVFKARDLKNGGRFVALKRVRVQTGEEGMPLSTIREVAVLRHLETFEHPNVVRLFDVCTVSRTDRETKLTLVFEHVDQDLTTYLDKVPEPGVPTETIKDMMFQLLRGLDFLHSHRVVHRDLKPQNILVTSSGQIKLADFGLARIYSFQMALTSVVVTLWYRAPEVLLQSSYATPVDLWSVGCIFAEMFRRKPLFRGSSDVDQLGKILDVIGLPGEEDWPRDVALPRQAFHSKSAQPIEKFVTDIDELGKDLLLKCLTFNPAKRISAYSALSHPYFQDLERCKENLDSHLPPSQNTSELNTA
T1 sequence (P30281 whole entry partner): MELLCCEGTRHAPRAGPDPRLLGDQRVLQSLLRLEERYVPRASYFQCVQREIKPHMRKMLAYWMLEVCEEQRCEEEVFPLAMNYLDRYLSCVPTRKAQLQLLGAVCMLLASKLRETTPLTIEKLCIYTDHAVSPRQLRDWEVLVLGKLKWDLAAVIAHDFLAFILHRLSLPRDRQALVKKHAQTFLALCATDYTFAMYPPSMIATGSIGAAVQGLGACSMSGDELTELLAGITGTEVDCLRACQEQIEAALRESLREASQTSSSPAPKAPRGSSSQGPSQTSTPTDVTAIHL
Summary of the method: (§1)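 Percent inhibition of each kinase was measured with the inhibitor at 0.1 µM and at 1 µM, as part of a 200-kinase human selectivity panel.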

SPHK2 = molecular target: T2, SPHK2 (Homo sapiens, UniProt Q9NRA0); settings: read-out: Percentage inhibition; for inhibition at 0.1 µM: 0.1 µM inhibitor; for inhibition at 1 µM: 1 µM inhibitor
T2 construct: purchased Nanosyn (enzymatic panel); SGC in-house recombinant human kinases (DSF panel); Invitrogen (ALK1-6)
T2 sequence (Q9NRA0 1-654): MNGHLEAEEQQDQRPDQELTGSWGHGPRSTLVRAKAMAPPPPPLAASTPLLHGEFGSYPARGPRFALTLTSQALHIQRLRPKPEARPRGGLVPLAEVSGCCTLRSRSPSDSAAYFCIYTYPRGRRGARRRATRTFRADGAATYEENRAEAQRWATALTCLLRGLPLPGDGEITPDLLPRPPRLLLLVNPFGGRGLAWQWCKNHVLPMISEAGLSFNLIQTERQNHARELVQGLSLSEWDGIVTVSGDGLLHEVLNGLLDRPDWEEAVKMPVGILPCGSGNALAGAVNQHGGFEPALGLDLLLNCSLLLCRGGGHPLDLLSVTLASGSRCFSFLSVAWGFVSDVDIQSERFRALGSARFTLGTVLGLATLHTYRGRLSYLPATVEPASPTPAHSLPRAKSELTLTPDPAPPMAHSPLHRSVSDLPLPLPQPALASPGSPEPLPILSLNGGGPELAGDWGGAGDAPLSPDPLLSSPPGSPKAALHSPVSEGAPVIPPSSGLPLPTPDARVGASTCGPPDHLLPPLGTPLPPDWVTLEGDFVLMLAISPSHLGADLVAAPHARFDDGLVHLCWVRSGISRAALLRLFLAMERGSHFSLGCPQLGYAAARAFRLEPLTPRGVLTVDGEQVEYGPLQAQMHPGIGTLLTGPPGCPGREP
Summary of the method: as §1

CDK4/cycD = molecular target: T3, CDK4/cycD (Homo sapiens, UniProt P11802); settings: read-out: Percentage inhibition; for inhibition at 0.1 µM: 0.1 µM inhibitor; for inhibition at 1 µM: 1 µM inhibitor
T3 construct: purchased Nanosyn (enzymatic panel); SGC in-house recombinant human kinases (DSF panel); Invitrogen (ALK1-6)
Summary of the method: as §1

PRAK = molecular target: T4, PRAK (Homo sapiens, UniProt Q8IW41); settings: read-out: Percentage inhibition; for inhibition at 0.1 µM: 0.1 µM inhibitor; for inhibition at 1 µM: 1 µM inhibitor
T4 construct: purchased Nanosyn (enzymatic panel); SGC in-house recombinant human kinases (DSF panel); Invitrogen (ALK1-6)
T4 sequence (Q8IW41 1-473): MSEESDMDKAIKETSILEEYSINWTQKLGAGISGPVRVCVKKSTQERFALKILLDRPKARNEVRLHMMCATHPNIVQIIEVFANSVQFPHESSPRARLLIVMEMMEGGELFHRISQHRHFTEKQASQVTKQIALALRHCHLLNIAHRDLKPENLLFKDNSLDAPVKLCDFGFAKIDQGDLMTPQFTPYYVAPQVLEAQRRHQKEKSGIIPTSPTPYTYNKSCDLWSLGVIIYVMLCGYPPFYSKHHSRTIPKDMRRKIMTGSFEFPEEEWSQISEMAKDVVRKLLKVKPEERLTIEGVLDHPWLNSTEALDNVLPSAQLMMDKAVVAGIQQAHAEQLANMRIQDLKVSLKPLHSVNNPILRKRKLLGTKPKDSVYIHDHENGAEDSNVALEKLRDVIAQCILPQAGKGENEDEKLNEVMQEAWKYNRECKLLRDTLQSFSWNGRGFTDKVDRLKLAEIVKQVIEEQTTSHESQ
Summary of the method: as §1

IKK-ε = molecular target: T5, IKK-ε (Homo sapiens, UniProt Q14164); settings: read-out: Percentage inhibition; for inhibition at 0.1 µM: 0.1 µM inhibitor; for inhibition at 1 µM: 1 µM inhibitor
T5 construct: purchased Nanosyn (enzymatic panel); SGC in-house recombinant human kinases (DSF panel); Invitrogen (ALK1-6)
T5 sequence (Q14164 1-716): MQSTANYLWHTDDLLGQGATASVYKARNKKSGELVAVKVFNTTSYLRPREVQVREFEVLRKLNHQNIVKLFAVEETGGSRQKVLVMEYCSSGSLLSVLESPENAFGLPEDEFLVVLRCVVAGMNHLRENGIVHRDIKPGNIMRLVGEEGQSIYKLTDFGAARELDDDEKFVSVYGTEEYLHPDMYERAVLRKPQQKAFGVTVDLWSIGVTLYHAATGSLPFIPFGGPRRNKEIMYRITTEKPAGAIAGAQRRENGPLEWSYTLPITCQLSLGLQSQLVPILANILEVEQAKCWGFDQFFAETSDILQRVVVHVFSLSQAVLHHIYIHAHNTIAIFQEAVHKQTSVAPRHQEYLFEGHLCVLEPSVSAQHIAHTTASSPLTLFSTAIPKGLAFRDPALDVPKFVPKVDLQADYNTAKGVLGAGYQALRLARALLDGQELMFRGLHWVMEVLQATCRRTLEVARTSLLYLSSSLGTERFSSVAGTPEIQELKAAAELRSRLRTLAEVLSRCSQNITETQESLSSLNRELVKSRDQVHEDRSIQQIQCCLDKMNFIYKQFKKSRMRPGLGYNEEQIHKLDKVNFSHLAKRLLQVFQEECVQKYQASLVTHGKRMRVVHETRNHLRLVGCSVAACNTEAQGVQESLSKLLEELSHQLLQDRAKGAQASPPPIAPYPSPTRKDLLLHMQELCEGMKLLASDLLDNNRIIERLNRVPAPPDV
Summary of the method: as §1

TIE2 = molecular target: T6, TIE2 (Homo sapiens, UniProt Q02763); settings: read-out: Percentage inhibition; for inhibition at 0.1 µM: 0.1 µM inhibitor; for inhibition at 1 µM: 1 µM inhibitor
T6 construct: purchased Nanosyn (enzymatic panel); SGC in-house recombinant human kinases (DSF panel); Invitrogen (ALK1-6)
T6 sequence (Q02763 23-1124): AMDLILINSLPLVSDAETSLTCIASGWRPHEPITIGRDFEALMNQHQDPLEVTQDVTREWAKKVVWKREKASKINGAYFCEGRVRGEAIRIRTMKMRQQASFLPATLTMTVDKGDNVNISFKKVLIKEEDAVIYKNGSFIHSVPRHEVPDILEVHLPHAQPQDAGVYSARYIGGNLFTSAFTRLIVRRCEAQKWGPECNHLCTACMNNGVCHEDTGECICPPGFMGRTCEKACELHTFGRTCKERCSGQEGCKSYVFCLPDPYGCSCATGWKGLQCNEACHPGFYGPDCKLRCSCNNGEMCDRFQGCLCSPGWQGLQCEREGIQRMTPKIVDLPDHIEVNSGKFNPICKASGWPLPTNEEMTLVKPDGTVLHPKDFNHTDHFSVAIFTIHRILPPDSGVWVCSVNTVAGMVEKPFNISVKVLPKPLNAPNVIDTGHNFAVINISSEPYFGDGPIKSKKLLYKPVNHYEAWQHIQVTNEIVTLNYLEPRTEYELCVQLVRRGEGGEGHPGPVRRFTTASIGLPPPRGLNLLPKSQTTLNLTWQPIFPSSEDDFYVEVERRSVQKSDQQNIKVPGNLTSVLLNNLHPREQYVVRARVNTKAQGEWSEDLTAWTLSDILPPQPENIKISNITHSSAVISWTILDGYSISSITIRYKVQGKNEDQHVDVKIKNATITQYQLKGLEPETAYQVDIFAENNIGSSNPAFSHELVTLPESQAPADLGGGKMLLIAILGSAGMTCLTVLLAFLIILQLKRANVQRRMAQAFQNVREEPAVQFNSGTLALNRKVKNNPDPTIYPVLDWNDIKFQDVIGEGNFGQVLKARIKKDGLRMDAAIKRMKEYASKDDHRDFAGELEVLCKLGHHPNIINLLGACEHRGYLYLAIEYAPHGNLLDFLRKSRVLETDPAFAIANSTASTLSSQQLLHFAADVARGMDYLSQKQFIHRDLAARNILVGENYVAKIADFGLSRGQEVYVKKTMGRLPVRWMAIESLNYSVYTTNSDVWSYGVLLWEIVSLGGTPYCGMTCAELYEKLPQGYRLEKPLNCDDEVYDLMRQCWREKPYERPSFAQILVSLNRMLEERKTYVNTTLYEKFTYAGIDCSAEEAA
Summary of the method: as §1

ARG = molecular target: T7, ARG (Homo sapiens, UniProt P42684); settings: for inhibition at 0.1 µM / inhibition at 1 µM: read-out: Percentage inhibition; for inhibition at 1 µM: 1 µM inhibitor
T7 construct: purchased Nanosyn (enzymatic panel); SGC in-house recombinant human kinases (DSF panel); Invitrogen (ALK1-6)
T7 sequence (P42684 whole entry): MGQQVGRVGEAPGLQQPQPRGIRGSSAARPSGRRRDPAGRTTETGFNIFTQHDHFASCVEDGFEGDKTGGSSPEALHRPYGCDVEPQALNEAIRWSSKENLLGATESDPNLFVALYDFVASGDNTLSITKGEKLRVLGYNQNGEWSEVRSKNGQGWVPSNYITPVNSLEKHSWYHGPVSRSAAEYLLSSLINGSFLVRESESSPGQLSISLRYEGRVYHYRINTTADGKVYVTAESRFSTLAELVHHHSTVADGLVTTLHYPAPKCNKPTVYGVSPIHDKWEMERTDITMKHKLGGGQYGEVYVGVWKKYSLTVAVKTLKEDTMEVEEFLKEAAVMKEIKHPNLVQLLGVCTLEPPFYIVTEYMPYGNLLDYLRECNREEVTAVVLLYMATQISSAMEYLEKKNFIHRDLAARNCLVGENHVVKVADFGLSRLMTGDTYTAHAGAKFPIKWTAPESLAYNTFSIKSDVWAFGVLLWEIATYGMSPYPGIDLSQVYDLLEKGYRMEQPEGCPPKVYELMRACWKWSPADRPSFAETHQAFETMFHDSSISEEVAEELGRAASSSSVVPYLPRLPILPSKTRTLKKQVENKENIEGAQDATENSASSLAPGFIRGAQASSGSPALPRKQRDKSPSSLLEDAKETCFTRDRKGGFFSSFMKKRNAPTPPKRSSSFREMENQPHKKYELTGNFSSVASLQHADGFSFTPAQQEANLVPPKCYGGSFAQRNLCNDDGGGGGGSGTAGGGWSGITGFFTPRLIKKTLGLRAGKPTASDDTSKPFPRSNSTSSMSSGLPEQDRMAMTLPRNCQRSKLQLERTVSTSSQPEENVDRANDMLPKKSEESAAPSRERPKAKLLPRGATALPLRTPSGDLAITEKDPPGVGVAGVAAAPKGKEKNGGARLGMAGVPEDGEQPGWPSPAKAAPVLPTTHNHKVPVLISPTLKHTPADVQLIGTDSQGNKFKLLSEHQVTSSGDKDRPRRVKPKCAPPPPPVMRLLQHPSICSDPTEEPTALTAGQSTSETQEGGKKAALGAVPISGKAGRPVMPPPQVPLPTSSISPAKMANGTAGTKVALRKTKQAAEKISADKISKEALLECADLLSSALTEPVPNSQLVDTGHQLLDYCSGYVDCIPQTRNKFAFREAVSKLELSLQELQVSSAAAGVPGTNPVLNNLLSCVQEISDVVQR
Summary of the method: as §1

MSK1 = molecular target: T8, MSK1 (Homo sapiens, UniProt O75582); settings: read-out: Percentage inhibition; for inhibition at 0.1 µM: 0.1 µM inhibitor; for inhibition at 1 µM: 1 µM inhibitor
T8 construct: purchased Nanosyn (enzymatic panel); SGC in-house recombinant human kinases (DSF panel); Invitrogen (ALK1-6)
T8 sequence (O75582 whole entry): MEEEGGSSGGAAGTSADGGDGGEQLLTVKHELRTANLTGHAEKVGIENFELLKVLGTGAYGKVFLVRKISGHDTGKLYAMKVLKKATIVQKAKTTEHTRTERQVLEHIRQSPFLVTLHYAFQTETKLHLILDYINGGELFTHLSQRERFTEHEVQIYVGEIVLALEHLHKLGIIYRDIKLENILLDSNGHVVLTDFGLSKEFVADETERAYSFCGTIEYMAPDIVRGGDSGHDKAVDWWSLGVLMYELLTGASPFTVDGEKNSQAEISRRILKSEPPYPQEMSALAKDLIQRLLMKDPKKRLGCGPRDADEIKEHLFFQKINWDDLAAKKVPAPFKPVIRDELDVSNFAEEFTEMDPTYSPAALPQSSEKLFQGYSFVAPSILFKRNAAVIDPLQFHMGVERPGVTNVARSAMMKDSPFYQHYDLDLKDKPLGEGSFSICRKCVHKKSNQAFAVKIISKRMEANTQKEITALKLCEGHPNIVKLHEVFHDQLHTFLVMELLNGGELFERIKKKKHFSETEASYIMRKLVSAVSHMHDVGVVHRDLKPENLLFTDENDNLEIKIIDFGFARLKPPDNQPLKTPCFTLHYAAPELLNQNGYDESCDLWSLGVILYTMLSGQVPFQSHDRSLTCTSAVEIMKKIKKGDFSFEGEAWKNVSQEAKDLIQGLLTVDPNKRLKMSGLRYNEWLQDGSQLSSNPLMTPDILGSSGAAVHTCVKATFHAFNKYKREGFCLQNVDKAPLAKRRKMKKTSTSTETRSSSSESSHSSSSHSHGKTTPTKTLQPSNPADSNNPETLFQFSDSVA
Summary of the method: as §1

CLK2 = molecular target: T9, CLK2 (Homo sapiens, UniProt P49760); settings: read-out: Percentage inhibition; for inhibition at 0.1 µM: 0.1 µM inhibitor; for inhibition at 1 µM: 1 µM inhibitor
T9 construct: purchased Nanosyn (enzymatic panel); SGC in-house recombinant human kinases (DSF panel); Invitrogen (ALK1-6)
T9 sequence (P49760 whole entry): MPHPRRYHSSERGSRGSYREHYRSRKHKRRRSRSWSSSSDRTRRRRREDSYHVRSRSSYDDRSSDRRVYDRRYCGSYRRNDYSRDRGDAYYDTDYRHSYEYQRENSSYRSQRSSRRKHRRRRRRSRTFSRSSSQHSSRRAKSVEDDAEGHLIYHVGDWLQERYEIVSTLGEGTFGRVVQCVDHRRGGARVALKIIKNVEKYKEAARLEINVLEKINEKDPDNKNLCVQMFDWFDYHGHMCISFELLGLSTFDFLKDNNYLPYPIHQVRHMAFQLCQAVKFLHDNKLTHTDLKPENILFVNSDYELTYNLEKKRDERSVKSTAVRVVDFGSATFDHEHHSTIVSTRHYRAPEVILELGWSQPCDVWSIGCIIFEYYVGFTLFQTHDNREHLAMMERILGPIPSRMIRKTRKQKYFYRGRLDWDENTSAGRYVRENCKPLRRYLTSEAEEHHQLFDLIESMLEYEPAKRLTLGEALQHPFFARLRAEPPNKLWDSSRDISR
Summary of the method: as §1

MAPKAPK3 = molecular target: T10, MAPKAPK3 (Homo sapiens, UniProt Q16644); settings: read-out: Percentage inhibition; for inhibition at 0.1 µM: 0.1 µM inhibitor; for inhibition at 1 µM: 1 µM inhibitor
T10 construct: purchased Nanosyn (enzymatic panel); SGC in-house recombinant human kinases (DSF panel); Invitrogen (ALK1-6)
T10 sequence (Q16644 whole entry): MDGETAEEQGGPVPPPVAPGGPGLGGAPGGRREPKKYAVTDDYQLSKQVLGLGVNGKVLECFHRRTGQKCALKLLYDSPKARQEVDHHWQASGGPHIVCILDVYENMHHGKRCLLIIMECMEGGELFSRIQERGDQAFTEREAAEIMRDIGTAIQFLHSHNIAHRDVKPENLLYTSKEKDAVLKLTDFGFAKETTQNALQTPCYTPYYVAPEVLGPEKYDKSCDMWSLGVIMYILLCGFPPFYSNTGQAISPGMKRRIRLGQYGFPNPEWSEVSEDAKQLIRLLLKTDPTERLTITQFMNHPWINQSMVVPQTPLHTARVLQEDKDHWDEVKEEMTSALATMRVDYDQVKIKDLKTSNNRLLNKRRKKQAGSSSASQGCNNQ
Summary of the method: as §1

| SMILES | inhibition at 0.1 µM (CDK6/cycD3) | inhibition at 1 µM (CDK6/cycD3) | inhibition at 0.1 µM (SPHK2) | inhibition at 1 µM (SPHK2) | inhibition at 0.1 µM (CDK4/cycD) | inhibition at 1 µM (CDK4/cycD) | inhibition at 0.1 µM (PRAK) | inhibition at 1 µM (PRAK) | inhibition at 0.1 µM (IKK-ε) | inhibition at 1 µM (IKK-ε) | inhibition at 0.1 µM (TIE2) | inhibition at 1 µM (TIE2) | inhibition at 0.1 µM (ARG; 0.1 µM inhibitor) | inhibition at 1 µM (ARG) | inhibition at 0.1 µM (MSK1) | inhibition at 1 µM (MSK1) | inhibition at 0.1 µM (CLK2) | inhibition at 1 µM (CLK2) | inhibition at 0.1 µM (MAPKAPK3) | inhibition at 1 µM (MAPKAPK3) | also measured |
| --- | --- | --- | --- | --- | --- | --- | --- | --- | --- | --- | --- | --- | --- | --- | --- | --- | --- | --- | --- | --- | --- |
| COc1cc(-c2cc(-c3cccc(O)c3)cnc2N)cc(OC)c1OC [K02288, 3-[6-amino-5-(3,4,5-trimethoxy-phenyl)-pyridin-3-yl]-phenol] | 1.7% | 2.8% | -2% | 4.4% | 0.1% | 1.3% | 0% | 0% | -6% | -2% | 1% | 3% | 66% | 85% | -2% | -1% | 0% | 0% | -1% | -2% | Percentage inhibition (ARG; 0.1 µM inhibitor, 0.1 µM): > 50% |
| c1ccc2c(-c3cnn4cc(-c5ccc(N6CCNCC6)cc5)cnc34)ccnc2c1 [LDN-193189] | 7.2% | 22% | -1% | -3% | 0.8% | 8.3% | 0.8% | 0.1% | 7.5% | 7.4% | 2% | 16% | 33% | 73% | 1.1% | 1.3% | 2.3% | 35% | 1.6% | 0.5% | – |
